Reference: US20080075796A1, “Compositions and Methods for Controlling Insects” (TyraTech, Inc., priority 2003, published 2008)

Key:
tyramine receptor (TyrR) = target: T1, tyramine receptor (TyrR) (Drosophila melanogaster, UniProt P22270); assay: Saturation binding of ^3H-tyramine to membranes from Schneider cells expressing tyramine receptor; details: saturation binding, membranes expressing TyrR
T1 sequence (P22270 27-601): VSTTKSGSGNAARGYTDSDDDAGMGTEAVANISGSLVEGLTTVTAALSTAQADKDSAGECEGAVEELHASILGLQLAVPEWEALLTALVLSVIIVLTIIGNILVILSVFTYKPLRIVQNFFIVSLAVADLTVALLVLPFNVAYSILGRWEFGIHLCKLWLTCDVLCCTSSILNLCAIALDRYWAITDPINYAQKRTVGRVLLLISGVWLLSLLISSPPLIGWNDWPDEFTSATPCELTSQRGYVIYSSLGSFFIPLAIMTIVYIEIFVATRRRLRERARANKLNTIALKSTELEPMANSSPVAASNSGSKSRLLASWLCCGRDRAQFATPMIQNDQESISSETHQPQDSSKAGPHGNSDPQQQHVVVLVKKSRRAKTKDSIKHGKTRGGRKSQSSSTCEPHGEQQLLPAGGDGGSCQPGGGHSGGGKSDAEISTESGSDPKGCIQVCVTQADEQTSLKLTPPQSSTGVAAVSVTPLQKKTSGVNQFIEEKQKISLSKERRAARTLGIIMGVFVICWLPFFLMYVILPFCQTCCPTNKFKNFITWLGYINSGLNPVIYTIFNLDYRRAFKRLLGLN
Description: A preliminary study to determine the optimum concentration of membrane protein for receptor binding activity is performed. […] After about 1 hr incubation at room temperature, reactions are terminated by filtration through GF/C filters (VWR), which have been previously soaked in about 0.3% polyethyleneimine (PEI). The filters are washed one time with about 4 ml ice cold Iris buffer and air dried before the retained radioactivity is measured using LSC. Binding data is analyzed by curve fitting (GraphPad software, Prism).
Receptor binding reactions are incubated for about 1 hr at room temperature (RT) in restricted light. Reactions are terminated by filtration through OF/C filters (VWR), which have been previously soaked in about 0.3% polyethyleneimine (PEI). The filters are washed one time with about 4 ml ice cold Tris buffer and air dried before retained radioactivity is measured using LSC. Binding data is analyzed by curve fitting (GraphPad software, Prism).

[1] = system: Drosophila melanogaster tyramine receptor (TyrR), SEQ ID NO: 2; assay: Inhibition of 3H-tyramine binding to membranes of Schneider cells expressing TyrR; details: compared with tyramine, FIG. 4
Description: Phage DNA is purified from this library using a liquid culture lysate.
In order to determine the pharmacological profile of tyramine receptor (TyrR), the ability of a number of putative Drosophila neurotransmitters to displace ^3H-tyramine (^3H-TA) binding from membranes expressing tyramine receptor is tested.

Or43a receptor = target: T2, Or43a receptor (Drosophila melanogaster, UniProt P81917, L154V); assay: Intracellular Ca^2+ mobilization in Schneider cells expressing Or43a receptor; format: cell-based; details: before vs approximately 150 seconds after treatment
T2 construct: His (from vector pAc5.1/V5-His B) (C); expressed in transfected cells
T2 sequence (P81917 whole entry L154V): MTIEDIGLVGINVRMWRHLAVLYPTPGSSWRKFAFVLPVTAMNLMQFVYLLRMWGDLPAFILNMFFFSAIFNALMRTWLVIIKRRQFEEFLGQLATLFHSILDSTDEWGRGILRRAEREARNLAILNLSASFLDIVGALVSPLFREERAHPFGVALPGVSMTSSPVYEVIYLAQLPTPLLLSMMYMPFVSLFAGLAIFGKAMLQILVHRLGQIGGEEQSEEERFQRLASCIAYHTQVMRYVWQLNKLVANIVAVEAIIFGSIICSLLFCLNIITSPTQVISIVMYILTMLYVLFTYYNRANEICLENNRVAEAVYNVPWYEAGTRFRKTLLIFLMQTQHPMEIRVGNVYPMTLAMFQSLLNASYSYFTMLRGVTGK
Description: Intracellular calcium ion concentrations ([Ca^2+]i) are measured by using the acetoxymethyl (AM) ester of the fluorescent indicator fura-2 (Enan, et al., Biochem. Pharmacol vol 51, 447-454). In this study, cells expressing tyramine receptor are grown under standard conditions. A cell suspension is prepared in assay buffer (140 mM NaCL, 10 mM HEPES, 10 mM glucose, 5 mM KCl, 1 mM CaCl2, 1 mM MgCl2) and cell number adjusted to about 2×10^6 cells per ml. Briefly, about 1.0 ml cell suspension (about 2×10^6 cells) is incubated with about 5 μM Fura 2/AM for about 30 min at about 28° C. After incubation, the cells are pelleted at about 3700 rpm for about 10 sec at room temperature and then resuspended in about 1.5 ml assay buffer. [Ca^2+]i changes are analyzed in spectrofluorometer in the presence and absence of test chemicals. Excitation wave lengths are about 340 nm (generated by Ca^2+-bound fura-2) and about 380 nm (corresponding to Ca^2+-free fura-2). The fluorescence intensity is monitored at an emission wave length of about 510 nm. No absorbance of fluorescence artifacts are observed with any of the compounds used. The ratio of about 340/380 nm is calculated and plotted as a function of time.
Intracellular Ca^2+ levels are measured using the method described above in Example 3.
Changes in intracellular Ca^2+ levels are calculated based on the difference between the 340/380 fluorescence ratios before and after approximately 150 seconds of the treatment.

[2] = system: Drosophila melanogaster Or43a olfactory receptor, SEQ ID NO: 4; assay: Interaction of plant essential oils with Or43a receptor binding site (3H-tyramine); details: membranes, FIGS. 16, 17, 19-21
Description: (§1) Total RNA is prepared from the head and antenna of wild type Drosophila melanogaster using Trizol Reagent (Invitrogen). They are homogenized in the Trizol using a motor driven teflon pestle and glass homogenizer. RNA is then prepared as per the manufacturer's instructions and includes removal of proteoglycans and polysaccharides by precipitation. The total RNA is reverse transcribed using oligo-dT as a primer and MuLV reverse transcriptase (Applied Biosystems). […] The Sense oligonucleotides contain Not I sites and the antisense oligonucleotides contain Sac II sites. Both restriction sites are indicated by underlined nucleotide. […] For PCR amplification of Or83b, Vent polymerase (New England Biolabs) is used with the following conditions: about 95° C., about 5 min for about 1 cycle; about 95° C., about 30 sec; and about 70° C., about 90 sec for about 40 cycles; and about 70° C., about 10 min for about 1 cycle. For PCR amplification of Or43a, the Failsafe PCR premix selection kit (Epicentre Technologies) is used with the following conditions: about 95° C., about 5 mill for about 1 cycle; about 95° C., about 30 sec; about 60° C., about 30 sec and about 70° C., about 90 sec for about 50 cycles; and about 70° C., about 10 min for about 1 cycle. […] The PCR products are digested with Sac II and Not I, gel purified and ligated into pAC 5.1/N5 His B (Invitrogen). Inserts are sequenced on both strands by automated fluorescent sequencing (Vanderbilt Cancer Center).
(§2) To address whether Or83b receptor and Or43a receptor contain a specific binding site for tyramine, membranes expressing Or83b receptor or Or43a receptor are prepared from cells expressing either receptor, as described above, and used for competitive binding with ^3H-tyramine. The binding assay protocol is exactly as described for cells expressing TyrR, as described above.
(§3) The cells expressing one of the olfactory receptors are used to investigate the interaction of plant essential oils with these receptors and the signaling cascade downstream of each receptor.
(§4) For the binding activity, membranes are prepared from each cell model and used to investigate the interaction of plant essential oil with the receptor binding site.

farm ants = assay: Repellent effect on farm ants (treated filter paper); format: in vivo
Description: Adult insect are randomly selected for testing the repellent effect of compositions and are not individually marked. About 5 insects per replicate are used. About 3 replicates are used for each treatment. Untreated control tests are included with only solvent (acetone) application to an equal sized population/replications, held under identical conditions. A filter paper (about 80 cm^2) is treated with the composition (about 100 mg in […] acetone). After about 3 min of air drying, the filter paper is placed in a dish and repellency against insects is performed. Insects are released to the dish, one insect at a time at the far end of the dish. Using one or more stopwatches, the time spent on either the filter paper or the untreated surface of the dish is recorded up to about 300 seconds. Repellency ratio (RR) is calculated as follows: RR=[(time on control surface−time on treated surface)/total time of test].
The repellent effect of various plant essential oils is tested by treating a filter paper with the test oils. After about five minutes at room temperature, the paper is placed in a dish and ants are introduced one at a time. […] Oils are tested alone. Additionally, oils are mixed to form compositions, which are then tested.

[3] = system: Drosophila melanogaster Or83b olfactory receptor, SEQ ID NO: 6; assay: Interaction of plant essential oils with Or83b receptor binding site (3H-tyramine); details: membranes, FIGS. 16, 18-21
Description: as §1, §2, §3, §4

[4] = system: Or83b and Or43a receptors; assay: Interaction of plant essential oils with olfactory receptor binding site (membranes, ^3H-tyramine); parameters: species or system Drosophila melanogaster; details: membranes incubated with ^3H-tyramine
Description: as §3, §4

[5] = Day 0, time on treated surface of up to about 300 seconds

| Compound | Bmax (tyramine receptor (TyrR)) | Kd (tyramine receptor (TyrR)) [nM] | displacing 3H-tyramine binding [1] | change in intracellular Ca^2+ levels (340/380 fluorescence ratio) (Or43a receptor) | interaction with the olfactory receptor [2] | Repellency %, R % (farm ants; Day 0) [%] | sec. on T surface (farm ants; [5]) [s] | Repellency %, R % (farm ants; Day 1) [%] | sec. on T surface (farm ants; Day 1) [s] | interaction with the olfactory receptor [3] | interaction with the olfactory receptors [4] |
| --- | --- | --- | --- | --- | --- | --- | --- | --- | --- | --- | --- |
| NCCc1ccc(O)cc1 [^3H-tyramine] | about 0.679 pmol/mg protein | ~1.26 |  |  |  |  |  |  |  |  |  |
| NCCc1ccc(O)c(O)c1 [Dopamine] |  |  | less efficient than tyramine |  |  |  |  |  |  |  |  |
| NCCc1c[nH]c2ccc(O)cc12 [Serotonin] |  |  | less efficient than tyramine |  |  |  |  |  |  |  |  |
| Cc1ccc(C(C)C)cc1 [p-cymene] |  |  |  | calcium mobilization | interact | 42.5 | 86.2 | 10.9 | 133.6 | interact | interact with the olfactory receptors |
| C=CC(C)(O)CCC=C(C)C (centres unmarked) [linalool] |  |  |  | calcium mobilization | interact | 60.7 | 59.0 | 25.9 | 111.2 | interact | interact with the olfactory receptors |
| NCC(O)c1ccc(O)cc1 (centres unmarked) [Octopamine] |  |  | less efficient than tyramine |  |  |  |  |  |  |  |  |
| CC1=CCC2CC1C2(C)C (stereo not drawn) [α-pinene] |  |  |  | calcium mobilization | interact | 48.4 | 77.4 | 07.2 | 139.2 | interact | interact with the olfactory receptors |
